Our source for the Ki values is patent US8796296B2, “Aminopyrimidine derivatives as LRRK2 modulators” (Genentech, Inc., priority 2011, dated 2014).

Chain of LRRK2 (Q5S007 whole entry G2019S): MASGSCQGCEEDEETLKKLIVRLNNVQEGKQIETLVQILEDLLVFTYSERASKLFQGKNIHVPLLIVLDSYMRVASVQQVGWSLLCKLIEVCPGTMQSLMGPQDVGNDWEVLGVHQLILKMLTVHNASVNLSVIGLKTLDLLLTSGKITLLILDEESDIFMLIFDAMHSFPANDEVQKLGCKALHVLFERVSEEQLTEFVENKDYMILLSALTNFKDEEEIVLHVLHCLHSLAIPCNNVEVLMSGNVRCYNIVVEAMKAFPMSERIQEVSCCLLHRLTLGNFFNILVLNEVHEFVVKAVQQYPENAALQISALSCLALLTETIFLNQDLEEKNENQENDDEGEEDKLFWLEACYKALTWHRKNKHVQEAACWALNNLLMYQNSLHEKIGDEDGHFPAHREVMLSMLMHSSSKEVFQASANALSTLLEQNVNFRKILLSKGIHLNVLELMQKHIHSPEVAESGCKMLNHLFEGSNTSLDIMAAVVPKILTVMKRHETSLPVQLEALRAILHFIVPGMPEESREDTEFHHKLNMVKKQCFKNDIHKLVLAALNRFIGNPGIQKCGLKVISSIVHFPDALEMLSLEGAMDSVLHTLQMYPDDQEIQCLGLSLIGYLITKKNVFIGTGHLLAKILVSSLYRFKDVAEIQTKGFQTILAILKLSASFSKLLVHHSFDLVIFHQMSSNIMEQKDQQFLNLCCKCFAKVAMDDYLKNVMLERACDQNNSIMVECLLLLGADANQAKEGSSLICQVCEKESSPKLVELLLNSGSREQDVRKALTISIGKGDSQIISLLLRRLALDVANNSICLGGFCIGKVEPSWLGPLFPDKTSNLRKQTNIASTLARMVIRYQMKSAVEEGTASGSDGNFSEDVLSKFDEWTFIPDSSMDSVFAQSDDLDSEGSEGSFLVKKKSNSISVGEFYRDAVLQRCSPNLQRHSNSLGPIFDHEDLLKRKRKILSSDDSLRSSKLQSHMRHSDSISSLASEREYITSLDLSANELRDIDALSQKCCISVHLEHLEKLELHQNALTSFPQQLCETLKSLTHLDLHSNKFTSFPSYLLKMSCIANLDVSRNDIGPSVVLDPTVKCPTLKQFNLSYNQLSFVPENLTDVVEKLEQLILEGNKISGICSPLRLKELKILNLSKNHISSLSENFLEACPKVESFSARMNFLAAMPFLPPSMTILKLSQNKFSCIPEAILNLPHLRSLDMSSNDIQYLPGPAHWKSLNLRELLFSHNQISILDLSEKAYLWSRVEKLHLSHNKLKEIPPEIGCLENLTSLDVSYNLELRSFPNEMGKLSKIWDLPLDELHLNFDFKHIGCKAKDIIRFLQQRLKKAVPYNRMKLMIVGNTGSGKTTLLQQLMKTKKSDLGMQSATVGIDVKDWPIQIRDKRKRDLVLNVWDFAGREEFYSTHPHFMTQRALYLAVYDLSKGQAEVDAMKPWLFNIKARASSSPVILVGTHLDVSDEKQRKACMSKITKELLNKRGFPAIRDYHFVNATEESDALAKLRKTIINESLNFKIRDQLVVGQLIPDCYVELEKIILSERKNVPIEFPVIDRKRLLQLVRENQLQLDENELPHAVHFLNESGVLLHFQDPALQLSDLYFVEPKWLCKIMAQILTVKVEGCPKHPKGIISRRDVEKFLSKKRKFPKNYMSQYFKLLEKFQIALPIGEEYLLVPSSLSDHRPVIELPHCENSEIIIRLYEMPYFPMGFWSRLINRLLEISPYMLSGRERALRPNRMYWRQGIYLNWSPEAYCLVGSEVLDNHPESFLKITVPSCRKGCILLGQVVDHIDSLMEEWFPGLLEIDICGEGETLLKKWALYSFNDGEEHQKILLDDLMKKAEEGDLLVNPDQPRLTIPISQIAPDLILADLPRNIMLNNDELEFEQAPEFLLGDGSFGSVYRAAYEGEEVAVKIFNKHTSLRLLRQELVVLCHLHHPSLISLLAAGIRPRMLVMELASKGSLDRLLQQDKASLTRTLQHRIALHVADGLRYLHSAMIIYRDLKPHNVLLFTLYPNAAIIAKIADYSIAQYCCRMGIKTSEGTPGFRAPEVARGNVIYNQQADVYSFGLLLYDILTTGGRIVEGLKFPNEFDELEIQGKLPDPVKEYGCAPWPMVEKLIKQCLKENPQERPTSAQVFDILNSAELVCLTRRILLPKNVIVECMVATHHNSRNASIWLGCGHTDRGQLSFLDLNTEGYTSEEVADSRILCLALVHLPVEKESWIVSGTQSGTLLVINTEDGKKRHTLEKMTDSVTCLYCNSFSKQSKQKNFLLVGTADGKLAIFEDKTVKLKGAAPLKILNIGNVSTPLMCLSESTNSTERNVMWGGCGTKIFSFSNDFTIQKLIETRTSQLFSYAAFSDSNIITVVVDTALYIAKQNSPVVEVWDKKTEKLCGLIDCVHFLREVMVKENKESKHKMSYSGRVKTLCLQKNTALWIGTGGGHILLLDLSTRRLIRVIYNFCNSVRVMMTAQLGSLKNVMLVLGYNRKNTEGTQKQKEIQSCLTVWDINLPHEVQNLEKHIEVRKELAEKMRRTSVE

This assay has as its target LRRK2 (Homo sapiens (Human), UniProt Q5S007, G2019S). The assay is described as follows: In Vitro LRRK2 LabChip Assay (LRRK2 Ki). Format: biochemical. As to the method: In Vitro LRRK2 LabChip Assay
This assay was used to determine a compound's potency in inhibiting activity of LRRK2 by determining, Kiapp, IC50, or percent inhibition values. In a polypropylene plate, LRRK2, fluorescently-labeled peptide substrate, ATP and test compound were incubated together. Using a LabChip 3000 (Caliper Life Sciences), after the reaction the substrate was separated by capillary electrophoresis into two populations: phosphorylated and unphosphorylated. The relative amounts of each were quantitated by fluorescence intensity. LRRK2 Ki was determined according to the equation: Y=V0*(1−((x+Ki*(1+S/Km)+Et)/(2*Et)−(((x+Ki*(1+S/Km)+Et)^2−(4*Et*x))^0.5)/(2*Et))). Ki values in Table 4 and elsewhere herein are shown in μM.
Assay conditions and materials used were as follows:
LRRK2 Wild type in 5 mM MgCl2: 15 nM (Invitrogen lot #500607F)
Kinase reaction time: 2 hours
Wild type in 5 mM MgCl2: 80 μM
Kinase: LRRK2 G2019S (Invitrogen cat #PV4882). • LRRK2 Wild type (Invitrogen cat #PV4874).
Substrate: 5FAM-GAGRLGRDKYKTLRQIRQ-CONH2
Complete Reaction Buffer: H2O/25 mM Tris, pH 8.0/5 mM MgCl2/2 mM DTT/0.01% Triton X-100.
For serial dilutions, 34.6 μl DMSO was added to columns 3-24. For the assay controls, 37.5 μl DMSO was added to columns 1 and 2 of rows A and P. a,d and 50 μl 25 μM G-028831 (Staurosporine) was added to columns 1 and 2, row B. For the samples: to start at 100 μM, 37.5 μl DMSO was to columns 1 and 2, then 12.5 μl 10 mM compound; to start at 10 μM, 78 μl DMSO was added to columns 1 & 2, then 2 μl 10 mM compound; and to start at 1 μM, 25 μM compound (2 μl 10 mM cmpd+798 μl DMSO) was added to empty columns 1 and 2. A Precision instrument was used to perform 1:3.16 serial dilutions (“PLK_BM_serial_halflog”).
ATP was diluted to 282.1 μM in Complete Kinase Buffer (final concentration was 130 μM).
In Complete Reaction Buffer, substrate was diluted to 4 μM. Equal volumes of Complete Reaction Buffer and 4 μM substrate were combined to obtain the blank. Equal volumes of Complete Reaction Buffer and 4 μM substrate were combined and to the combined solution was added 2× final LRRK2 concentration.
To a 50 μl polypropylene plate, 5 μl/well buffer/substrate was added by hand to Blank wells. A Biomek FX was used to start the kinase reaction (“PLK SAR 23 ATP”). The following were added to the appropriate wells:
The plate was incubated for 2 hours in the dark. Biomek FX was used to stop the kinase reaction (“PLK Stop”), and 10 μl/well Stop solution was added to the Assay Plate.
Results were read on the LabChip 3000.
The LabChip 3000 was run using the job “LRRK2 IC50” with the following job settings: […]
A word on the Ki: it is a measure of affinity in units of concentration, obtained from inhibition or displacement. A higher Ki goes with weaker binding. As to `CNc1nc(Nc2cc3c(cc2Cl)c(C(=O)N2CCN(C)CC2)cn3C)ncc1C(F)(F)F` [Compound 31, (5-chloro-1-methyl-6-(4-(methylamino)-5-(trifluoromethyl)pyrimidin-2-ylamino)-1H-indol-3-yl)(4-methylpiperazin-1-yl)methanone], affinity was put at a Ki of 1 nM.
For `CCN1CCN(C(=O)c2cn(C)c3cc(Nc4ncc(C(F)(F)F)c(NC)n4)c(Cl)cc23)CC1` [Compound 32, (5-chloro-1-methyl-6-(4-(methylamino)-5-(trifluoromethyl)pyrimidin-2-ylamino)-1H-indol-3-yl)(4-ethylpiperazin-1-yl)methanone] the value was 1 nM; for `CNc1nc(Nc2cc3c(cc2Cl)c(C(=O)N2C[C@@H]4C[C@H]2CO4)cn3C)ncc1C(F)(F)F` [Compound 33, (1S,4S)-2-oxa-5-azabicyclo[2.2.1]heptan-5-yl(5-chloro-1-methyl-6-(4-(methylamino)-5-(trifluoromethyl)pyrimidin-2-ylamino)-1H-indol-3-yl)methanone], 3 nM.
